Broadly, the EC50 is the midpoint of the concentration-response curve. Lower therefore signals a more potent agent.

Test [1] relates to gubernaculum of female embryos. The test can be described thus: Gubernaculum development in female embryos of treated pregnant mice. The class given is in vivo, C57BL/6J mice. The settings on record: 30 mg/kg intraperitoneal to pregnant females, embryonic day 12.5 to 17.5. An excerpt: The role of INSL3 and RXFP2 in gubernaculum development for the initial transabdominal descent of the testis during embryogenesis has been widely characterized in Insl3^-/- and Rxfp2^-/- mouse models of cryptorchidism. […] The gubernaculum is composed of the gubernacular bulb and cord, and it has begun invagination into the abdominal wall in preparation for the inguinoscrotal stage of testicular descent, which will finalize after birth. […] The hypothesis for our experiment is that by injecting pregnant females with the RXFP2 agonists during this embryonic development window, gubemaculum development could be induced in female embryos, which has been previously shown in female embryos overexpressing INSL3. […] For this assay, whole embryos were fixed in 10% formaldehyde for 24 hours. Afterwards, embryos were washed twice with PBS for 1 hour, followed by 3 consecutive washes with increasing concentrations of ethanol (30%, 50% and 70%) for 30 minutes. Fixed embryos were prepared for histology using an automatic tissue processor (Leica TP1020, Leica Biosystems, Germany), embedded in paraffin wax, and 5-7 μm sagittal serial sections were cut using an automated rotary microtome (Leica RM2255, Leica Biosystems, Germany). […] At least 4 embryos were analyzed per treatment group.

The target of the next test is T1, RXFP2 (Homo sapiens, UniProt Q8WXD0).
T1 construct: expressed in transfected cells
As to the kind of experiment: Luciferase cAMP assay in HEK-CRE-Luc-RXFP2 cells. The class given is cell-based. On the procedure:
A confirmatory cAMP assay was done to eliminate false positives using a HEK293T-CRE-Luc cell line stably transfected with RXFP2 (HEK-CRE-Luc-RXFP2), as this cell line expresses luciferase under the control of the cAMP response element (CRE). Activation of the RXFP2 receptor increases intracellular cAMP levels, inducing luciferase transcription in the nucleus. Thus, luciferase activity in these cells is proportional to cAMP accumulation. For this assay, cells were seeded in 96-well flat-bottom opaque plates at 20,000 cells/well in 60 μL/well of serum-free DMEM medium and allowed to attach overnight at 37° C., 5% CO2. The next morning, cells were treated with 1 μL/well of compound (25 μM-0.21 nM), 1 μM forskolin, or DMSO vehicle. Cells were also treated with 4 μL of INSL3 (100-0.01 nM) (Phoenix Pharmaceuticals, Burlingame, CA) or vehicle serum-free DMEM. Cells were incubated with the treatments for 3 hours at 37° C., 5% CO2, then rested 30 minutes at room temperature for equilibration, after which 65 μL/well of substrate AMPLITE™ Luciferase Reporter Gene Assay Kit (AAT Bioquest, Sunnyvale, CA) was added. Plates were incubated for 40 minutes at room temperature protected from light, and then luciferase output was read on a CLARIOstar plate reader (BMG Labtech, Germany). […]
(Changes in cAMP serve as a functional read-out for many G protein-coupled receptors.)

T1 sequence (Q8WXD0 whole entry): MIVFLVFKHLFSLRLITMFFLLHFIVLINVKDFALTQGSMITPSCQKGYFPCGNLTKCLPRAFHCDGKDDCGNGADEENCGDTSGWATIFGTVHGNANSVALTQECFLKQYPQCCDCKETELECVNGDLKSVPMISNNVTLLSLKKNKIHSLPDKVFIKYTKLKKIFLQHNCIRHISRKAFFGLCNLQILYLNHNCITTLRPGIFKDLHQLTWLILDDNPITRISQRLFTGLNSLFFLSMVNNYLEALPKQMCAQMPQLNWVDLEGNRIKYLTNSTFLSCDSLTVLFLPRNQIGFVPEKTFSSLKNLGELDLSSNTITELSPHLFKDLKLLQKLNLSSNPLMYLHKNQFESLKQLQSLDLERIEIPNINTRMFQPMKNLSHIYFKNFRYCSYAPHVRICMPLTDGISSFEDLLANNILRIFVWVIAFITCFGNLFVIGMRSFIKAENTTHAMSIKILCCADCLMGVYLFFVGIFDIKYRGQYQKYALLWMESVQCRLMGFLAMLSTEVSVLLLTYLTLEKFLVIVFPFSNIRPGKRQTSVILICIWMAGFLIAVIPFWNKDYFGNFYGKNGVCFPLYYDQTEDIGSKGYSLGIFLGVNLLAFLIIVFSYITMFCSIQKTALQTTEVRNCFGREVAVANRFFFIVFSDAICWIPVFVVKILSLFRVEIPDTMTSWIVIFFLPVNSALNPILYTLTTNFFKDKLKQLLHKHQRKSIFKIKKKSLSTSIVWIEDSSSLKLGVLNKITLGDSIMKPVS

As for `O=C1Nc2ccc(-c3cc(C(F)(F)F)cc(C(F)(F)F)c3)cc2C(=O)N2CCN(C(=O)COc3ccc(OC(F)(F)F)cc3Br)C[C@@H]12` [Example 158, (S)-8-(3,5-Bis(trifluoromethyl)phenyl)-2-(2-(2-bromo-4-(trifluoromethoxy)phenoxy)acetyl)-1,3,4,12a-tetrahydrobenzo[e]pyrazino[1,2-a][1,4]diazepine-6,12 (2H, 11H)-dione], the “gubernaculum morphology in embryonic day 18.5 female embryos” value in test [1] is listed as “male-like invagination of the gubemaculum”. Moreover, on RXFP2 (3 h treatment, 25 μM-0.21 nM), the EC50 stood at 25.8 nM. On RXFP2 (luciferase cAMP assay), the “RXFP2 agonist activity” value is listed as “potent RXFP2 agonists”. Moreover, the “Emax (% Eff vs. 10 nM INSL3)” value on RXFP2 (relative to 10 nM INSL3 response) is given as 105.5%.

These data come from patent US20250134907A1, “FUSED DIAZEPINES AS AGONISTS OF THE INSULIN-LIKE 3 (INSL3) PEPTIDE RECEPTOR RXFP2 AND METHODS OF USE THEREOF” (The United States of America,as represented by the …, priority 2022, published 2025).
